Where a SMILES comes first, the peptide text is derived from it. Bridges are numbered along the chain shown (N, C = ends). [ ]: non-standard residue; d: D form. The star is where a group is joined. hPhe(3-Cl-4-CF3) = N[C@@H](CCc1ccc(C(F)(F)F)c(Cl)c1)C(=O)O; NPrPhe(4-CF3) = CCCN[C@@H](Cc1ccc(C(F)(F)F)cc1)C(=O)O; NMeGly(cPent) = CN[C@H](C(=O)O)C1CCCC1; NMeL = CN[C@@H](CC(C)C)C(=O)O; Morpholide = C1CN(*)CCO1; Aze = O=C(O)[C@@H]1CCN1; Ac4c = NC1(C(=O)O)CCC1; Sar = CNCC(=O)O
How the values were obtained:
[1] = target: GDP-bound HRAS wild-type protein (Homo sapiens, UniProt P01112); assay: Binding to HRAS by surface plasmon resonance (SPR), Single Cycle Kinetics; settings: SPR; for HRAS/KRAS (ratio of KD value with respect to HRAS to KD value with respect to KRAS): GDP-bound HRAS wild-type vs GDP-bound KRAS wild-type
Sequence of GDP-bound HRAS wild-type protein (P01112 whole entry): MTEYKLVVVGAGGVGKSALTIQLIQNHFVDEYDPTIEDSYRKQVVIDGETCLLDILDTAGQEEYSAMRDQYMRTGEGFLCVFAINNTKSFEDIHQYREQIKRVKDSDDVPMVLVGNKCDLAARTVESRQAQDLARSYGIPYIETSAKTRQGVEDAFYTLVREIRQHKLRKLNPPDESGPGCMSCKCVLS

[2] = target: GDP-bound NRAS wild-type protein (Homo sapiens, UniProt P01111); assay: Binding to NRAS by surface plasmon resonance (SPR), Single Cycle Kinetics; settings: SPR; for NRAS/KRAS (ratio of KD value with respect to NRAS to KD value with respect to KRAS): GDP-bound NRAS wild-type vs GDP-bound KRAS wild-type
Sequence of GDP-bound NRAS wild-type protein (P01111 whole entry): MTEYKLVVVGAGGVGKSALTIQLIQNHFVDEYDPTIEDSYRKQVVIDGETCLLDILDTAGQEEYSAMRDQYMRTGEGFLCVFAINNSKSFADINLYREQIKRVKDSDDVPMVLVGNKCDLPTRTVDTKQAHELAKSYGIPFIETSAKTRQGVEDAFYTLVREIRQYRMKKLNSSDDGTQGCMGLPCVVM

CCC[C@H]1C(=O)N[C@@H]([C@H](C)CC)C(=O)N(C)CC(=O)N(C)[C@H]2C/C=C\CCN(C2=O)[C@@H](Cc2ccc(C)cc2)C(=O)N(C)CC(=O)N[C@@H](CCc2ccc(C(F)(F)F)c(Cl)c2)C(=O)N2C[C@H](OCC)C[C@H]2C(=O)NC2(CC(C)(C)C2)C(=O)N(C)[C@@H](C2CCCC2)C(=O)N(C)[C@H](C(=O)N(C)C)CC(=O)N1C [PP2221]
HRAS/KRAS (ratio of KD value with respect to HRAS to KD value with respect to KRAS) [1]: A (a compound having 10 or more and less than 20 is denoted as A)
NRAS/KRAS (ratio of KD value with respect to NRAS to KD value with respect to KRAS) [2]: A (a compound having 10 or more and less than 20 is denoted as A)

C#CC[C@H]1C(=O)N[C@@H]([C@@H](C)CC)C(=O)N(C)CC(=O)N(C)[C@H]2CCCCCN(C2=O)[C@@H](Cc2ccc(C(F)(F)F)cc2)C(=O)N(C)CC(=O)N[C@@H](CCc2cc(F)c(C(F)(F)F)c(F)c2)C(=O)N2C[C@H](OCC)C[C@H]2C(=O)NC2(CCC2)C(=O)N(C)[C@@H](C2CCCC2)C(=O)N(C)[C@H](C(=O)N(C)C)CC(=O)N1C [PP0666]
HRAS/KRAS (ratio of KD value with respect to GDP-bound HRAS wild-type protein to KD value with respect to KRAS) ([1]; KD ratio HRAS/KRAS): B (a compound having 3 or more and less than 10 is denoted as B)
NRAS/KRAS (ratio of KD value with respect to GDP-bound NRAS wild-type protein to KD value with respect to KRAS) ([2]; KD ratio NRAS/KRAS): B (a compound having 3 or more and less than 10 is denoted as B)

CCOC[C@H]1C(=O)N[C@@H]([C@@H](C)CC)C(=O)N(C)CC(=O)N(C)[C@H]2C/C=C\CCN(C2=O)[C@@H](CC2CCCCC2)C(=O)N(C)CC(=O)N[C@@H](CCc2ccc(C(F)(F)F)c(Cl)c2)C(=O)N2C[C@H](OCC)C[C@H]2C(=O)NC2(CC(C)(C)C2)C(=O)N(C)[C@@H](C(CC)CC)C(=O)N(C)[C@H](C(=O)N(C)C)CC(=O)N1C [PP2488]
HRAS/KRAS (ratio of KD value with respect to HRAS to KD value with respect to KRAS) [1]: A (a compound having 10 or more and less than 20 is denoted as A)
NRAS/KRAS (ratio of KD value with respect to NRAS to KD value with respect to KRAS) [2]: A (a compound having 10 or more and less than 20 is denoted as A)

CC[C@H](C)[C@@H]1NC(=O)[C@@H]2CCCCCN2C(=O)C[C@@H](C(=O)N2CCOCC2)N(C)C(=O)[C@H](C2CCCC2)N(C)C(=O)C2(CCCC2)NC(=O)[C@@H]2CCCN2C(=O)[C@H](CCc2cc(F)c(C(F)(F)F)c(F)c2)NC(=O)CN(C)C(=O)[C@H](Cc2ccc(C(F)(F)F)cc2)N2CCCC[C@@H](C2=O)N(C)C(=O)CN(C)C1=O [PP0595]
HRAS/KRAS (ratio of KD value with respect to GDP-bound HRAS wild-type protein to KD value with respect to KRAS) ([1]; KD ratio HRAS/KRAS): B (a compound having 3 or more and less than 10 is denoted as B)
NRAS/KRAS (ratio of KD value with respect to GDP-bound NRAS wild-type protein to KD value with respect to KRAS) ([2]; KD ratio NRAS/KRAS): C (A compound having a KD ratio of 0.1 or more and less than 3 is denoted as C)

CC[C@H](C)[C@@H]1NC(=O)[C@H](CC(C)C)N(C)C(=O)C[C@@H](C(=O)N2CCOCC2)N(C)C(=O)[C@H](C2CCCC2)N(C)C(=O)C2(CCCC2)NC(=O)[C@@H]2CCCN2C(=O)[C@H](CCc2ccc(C(F)(F)F)c(Cl)c2)NC(=O)CN(C)C(=O)[C@H](Cc2ccc(C(F)(F)F)cc2)N2CC=CC[C@@H](C2=O)N(C)C(=O)CN(C)C1=O [PP0462]
HRAS/KRAS (ratio of KD value with respect to GDP-bound HRAS wild-type protein to KD value with respect to KRAS) ([1]; KD ratio HRAS/KRAS): C (A compound having a KD ratio of 0.1 or more and less than 3 is denoted as C)
NRAS/KRAS (ratio of KD value with respect to GDP-bound NRAS wild-type protein to KD value with respect to KRAS) ([2]; KD ratio NRAS/KRAS): C (A compound having a KD ratio of 0.1 or more and less than 3 is denoted as C)

CCO[C@@H]1C[C@H]2C(=O)NC3(CCC3)C(=O)N(C)[C@@H](C3CCCC3)C(=O)N(C)[C@H](C(=O)N(C)C)CC(=O)N(C)[C@@H](Cc3cccc(Cl)c3)C(=O)N[C@@H]([C@@H](C)CC)C(=O)N(C)CC(=O)N(C)[C@H]3C/C=C\CCN(C3=O)[C@@H](Cc3ccc(C(F)(F)F)cc3)C(=O)N(C)CC(=O)N[C@@H](CCc3cc(F)c(C(F)(F)F)c(F)c3)C(=O)N2C1 [PP1127]
HRAS/KRAS (ratio of KD value with respect to HRAS to KD value with respect to KRAS) ([1]; KD ratio): A (a compound having 10 or more and less than 20 is denoted as A)
NRAS/KRAS (ratio of KD value with respect to NRAS to KD value with respect to KRAS) ([2]; KD ratio): AA (a compound having 20 or more is denoted as AA)

CCCN1C(=O)CN(C)C(=O)[C@@H]2CCN2C(=O)[C@H]([C@@H](C)CC)NC(=O)[C@H](CC(C)C)N(C)C(=O)C[C@@H](C(=O)N2CCOCC2)NC(=O)[C@H](C2CCCC2)N(C)C(=O)C2(CCC2)NC(=O)[C@@H]2CCCN2C(=O)[C@H](CCc2ccc(C(F)(F)F)c(Cl)c2)NC(=O)CN(C)C(=O)[C@@H]1Cc1ccc(C(F)(F)F)cc1 [PP0338] ([NMeL]I[Aze][Sar][NPrPhe(4-CF3)][Sar][hPhe(3-Cl-4-CF3)]P[Ac4c][NMeGly(cPent)]D-Morpholide; lactam N-11)
HRAS/KRAS (ratio of KD for GDP-bound HRAS wild-type to KD for KRAS) ([1]; KD ratio HRAS/KRAS): B (a compound having 3 or more and less than 10 is denoted as B)
NRAS/KRAS (ratio of KD for GDP-bound NRAS wild-type to KD for KRAS) ([2]; KD ratio NRAS/KRAS): B (a compound having 3 or more and less than 10 is denoted as B)
